US20230144436A1, “MUSCLE TARGETING COMPLEXES AND USES THEREOF FOR TREATING MYOTONIC DYSTROPHY” (Dyne Therapeutics, Inc., priority 2020, published 2023)

Tested on: DMPK
Assay: DMPK knockdown by transfected antisense oligonucleotides in DM1 C15 myotubes at 0.5 nM and 50 nM
Assay type: cell-based
Settings: 72 hours; for Normalized DMPK Remaining: relative to vehicle control = 1.00
Procedure, shortened: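 Seven-day-differentiated DM1 C15 myotubes transfected (Lipofectamine MessengerMax) with each oligonucleotide at 0.5 nM or 50 nM final, biological triplicates. After 72 h, DMPK mRNA quantified by qPCR, expressed relative to vehicle-only transfection set to 1.00.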

[1] = 0.5 nM oligonucleotide, qPCR, relative to vehicle control
[2] = 50 nM oligonucleotide, qPCR, relative to vehicle control

420 (ACAAUCUCCGCCAGGUAGAA; chemistry not given here) [compound 420]
Percent DMPK Reduction (0.5 nM oligonucleotide): 19.09%
Normalized DMPK Remaining (0.5 nM oligonucleotide): 0.81
Percent DMPK Reduction (50 nM oligonucleotide): 49.75%
Normalized DMPK Remaining (50 nM oligonucleotide): 0.50

361 (GCCAUGACAAUCUCCGCCAG; chemistry not given here) [compound 361]
Percent DMPK Reduction [1]: 30.96%
Normalized DMPK Remaining (0.5 nM oligonucleotide, qPCR): 0.69
Percent DMPK Reduction [2]: 81.00%
Normalized DMPK Remaining (50 nM oligonucleotide, qPCR): 0.19

283 (GCCAAAGAAGAAGGGAUGUG; chemistry not given here) [compound 283]
Percent DMPK Reduction [1]: 24.87%
Normalized DMPK Remaining (0.5 nM oligonucleotide, qPCR): 0.75
Percent DMPK Reduction [2]: 56.19%
Normalized DMPK Remaining (50 nM oligonucleotide, qPCR): 0.44

386 (CUCAGUGCAUCCAAAACGUG; chemistry not given here) [compound 386]
Percent DMPK Reduction (0.5 nM oligonucleotide): 7.65%
Normalized DMPK Remaining (0.5 nM oligonucleotide): 0.92
Percent DMPK Reduction (50 nM oligonucleotide): 54.26%
Normalized DMPK Remaining (50 nM oligonucleotide): 0.46

453 (CAGCAGGAUGUUGUCGGGUU; chemistry not given here) [compound 453]
Percent DMPK Reduction (0.5 nM oligonucleotide): 34.18%
Normalized DMPK Remaining (0.5 nM oligonucleotide): 0.66
Percent DMPK Reduction (50 nM oligonucleotide): 84.54%
Normalized DMPK Remaining (50 nM oligonucleotide): 0.15

342 (UGGCCACAGCGGUCCAGCAG; chemistry not given here) [compound 342]
Percent DMPK Reduction [1]: 29.59%
Normalized DMPK Remaining (0.5 nM oligonucleotide, qPCR): 0.70
Percent DMPK Reduction [2]: 69.44%
Normalized DMPK Remaining (50 nM oligonucleotide, qPCR): 0.31

381 (UAGUUCUCAUCCUGGAAGGC; chemistry not given here) [compound 381]
Percent DMPK Reduction (0.5 nM oligonucleotide): 16.83%
Normalized DMPK Remaining (0.5 nM oligonucleotide): 0.83
Percent DMPK Reduction (50 nM oligonucleotide): 43.88%
Normalized DMPK Remaining (50 nM oligonucleotide): 0.56

291 (AUACUCCAUGACCAGGUACA; chemistry not given here) [compound 291]
Percent DMPK Reduction [1]: 23.07%
Normalized DMPK Remaining (0.5 nM oligonucleotide, qPCR): 0.77
Percent DMPK Reduction [2]: 56.84%
Normalized DMPK Remaining (50 nM oligonucleotide, qPCR): 0.43

355 (CCCGUCUGCUUCAUCUUCAC; chemistry not given here) [compound 355]
Percent DMPK Reduction [1]: 20.31%
Normalized DMPK Remaining (0.5 nM oligonucleotide, qPCR): 0.80
Percent DMPK Reduction [2]: 43.97%
Normalized DMPK Remaining (50 nM oligonucleotide, qPCR): 0.56

441 (CAAUCUCCGCCAGGUAGAAG; chemistry not given here) [compound 441]
Percent DMPK Reduction (0.5 nM oligonucleotide): 15.95%
Normalized DMPK Remaining (0.5 nM oligonucleotide): 0.84
Percent DMPK Reduction (50 nM oligonucleotide): 49.25%
Normalized DMPK Remaining (50 nM oligonucleotide): 0.51

384 (UGGACGAUCUUGCCAUAGGU; chemistry not given here) [compound 384]
Percent DMPK Reduction (0.5 nM oligonucleotide): 19.20%
Normalized DMPK Remaining (0.5 nM oligonucleotide): 0.81
Percent DMPK Reduction (50 nM oligonucleotide): 42.52%
Normalized DMPK Remaining (50 nM oligonucleotide): 0.57

374 (CCGCUCCCCAAACUUGCUCA; chemistry not given here) [compound 374]
Percent DMPK Reduction [1]: 0.28%
Normalized DMPK Remaining (0.5 nM oligonucleotide, qPCR): 1.00
Percent DMPK Reduction [2]: 56.82%
Normalized DMPK Remaining (50 nM oligonucleotide, qPCR): 0.43

434 (UUUCAUAGGCGAAUACACCC; chemistry not given here) [compound 434]
Percent DMPK Reduction (0.5 nM oligonucleotide): 5.56%
Normalized DMPK Remaining (0.5 nM oligonucleotide): 0.94
Percent DMPK Reduction (50 nM oligonucleotide): 53.28%
Normalized DMPK Remaining (50 nM oligonucleotide): 0.47

417 (CCAGCAGGAUGUUGUCGGGU; chemistry not given here) [compound 417]
Percent DMPK Reduction (0.5 nM oligonucleotide): 40.29%
Normalized DMPK Remaining (0.5 nM oligonucleotide): 0.60
Percent DMPK Reduction (50 nM oligonucleotide): 89.59%
Normalized DMPK Remaining (50 nM oligonucleotide): 0.10

463 (AGGUAGUUCUCAUCCUGGAA; chemistry not given here) [compound 463]
Percent DMPK Reduction (0.5 nM oligonucleotide): 7.36%
Normalized DMPK Remaining (0.5 nM oligonucleotide): 0.93
Percent DMPK Reduction (50 nM oligonucleotide): 62.62%
Normalized DMPK Remaining (50 nM oligonucleotide): 0.37

289 (AUGACAAUCUCCGCCAGGUA; chemistry not given here) [compound 289]
Percent DMPK Reduction [1]: 42.38%
Normalized DMPK Remaining (0.5 nM oligonucleotide, qPCR): 0.58
Percent DMPK Reduction [2]: 60.47%
Normalized DMPK Remaining (50 nM oligonucleotide, qPCR): 0.40

395 (AAGGGCGUCUGCCCAUAGAA; chemistry not given here) [compound 395]
Percent DMPK Reduction (0.5 nM oligonucleotide): 13.15%
Normalized DMPK Remaining (0.5 nM oligonucleotide): 0.87
Percent DMPK Reduction (50 nM oligonucleotide): 34.56%
Normalized DMPK Remaining (50 nM oligonucleotide): 0.65

279 (CAUCUCGGCCGGAAUCCGCU; chemistry not given here) [compound 279]
Percent DMPK Reduction [1]: 20.21%
Normalized DMPK Remaining (0.5 nM oligonucleotide, qPCR): 0.80
Percent DMPK Reduction [2]: 59.40%
Normalized DMPK Remaining (50 nM oligonucleotide, qPCR): 0.41

364 (AGCGCCCACCAGUCACACUC; chemistry not given here) [compound 364]
Percent DMPK Reduction [1]: 30.36%
Normalized DMPK Remaining (0.5 nM oligonucleotide, qPCR): 0.70
Percent DMPK Reduction [2]: 63.67%
Normalized DMPK Remaining (50 nM oligonucleotide, qPCR): 0.36

359 (UGCACGUGUGGCUCAAGCAG; chemistry not given here) [compound 359]
Percent DMPK Reduction [1]: 10.81%
Normalized DMPK Remaining (0.5 nM oligonucleotide, qPCR): 0.89
Percent DMPK Reduction [2]: 64.18%
Normalized DMPK Remaining (50 nM oligonucleotide, qPCR): 0.36

252 (UCUCGGCCGGAAUCCGCUCC; chemistry not given here) [compound 252]
Percent DMPK Reduction [1]: 27.88%
Normalized DMPK Remaining (0.5 nM oligonucleotide, qPCR): 0.72
Percent DMPK Reduction [2]: 67.46%
Normalized DMPK Remaining (50 nM oligonucleotide, qPCR): 0.33

275 (AGCGCCUCCGAUAGGCCAGG; chemistry not given here) [compound 275]
Percent DMPK Reduction [1]: 21.19%
Normalized DMPK Remaining (0.5 nM oligonucleotide, qPCR): 0.79
Percent DMPK Reduction [2]: 61.91%
Normalized DMPK Remaining (50 nM oligonucleotide, qPCR): 0.38

332 (AAUCUCCGCCAGGUAGAAGC; chemistry not given here) [compound 332]
Percent DMPK Reduction [1]: 35.85%
Normalized DMPK Remaining (0.5 nM oligonucleotide, qPCR): 0.64
Percent DMPK Reduction [2]: 65.27%
Normalized DMPK Remaining (50 nM oligonucleotide, qPCR): 0.35

300 (GGCCUCAGCCUCUGCCGCAG; chemistry not given here) [compound 300]
Percent DMPK Reduction [1]: 20.12%
Normalized DMPK Remaining (0.5 nM oligonucleotide, qPCR): 0.80
Percent DMPK Reduction [2]: 71.28%
Normalized DMPK Remaining (50 nM oligonucleotide, qPCR): 0.29

397 (GGACAGACAAUAAAUACCGA; chemistry not given here) [compound 397]
Percent DMPK Reduction (0.5 nM oligonucleotide): 22.57%
Normalized DMPK Remaining (0.5 nM oligonucleotide): 0.77
Percent DMPK Reduction (50 nM oligonucleotide): 52.51%
Normalized DMPK Remaining (50 nM oligonucleotide): 0.47

443 (CCAUCCGCUCCUGCAACUGC; chemistry not given here) [compound 443]
Percent DMPK Reduction (0.5 nM oligonucleotide): 19.53%
Normalized DMPK Remaining (0.5 nM oligonucleotide): 0.80
Percent DMPK Reduction (50 nM oligonucleotide): 71.62%
Normalized DMPK Remaining (50 nM oligonucleotide): 0.28

366 (UUUGGGCAGAUGGAGGGCCU; chemistry not given here) [compound 366]
Percent DMPK Reduction [1]: 35.14%
Normalized DMPK Remaining (0.5 nM oligonucleotide, qPCR): 0.65
Percent DMPK Reduction [2]: 70.00%
Normalized DMPK Remaining (50 nM oligonucleotide, qPCR): 0.30

263 (GGAUGGCCUCCAUCUCCCGG; chemistry not given here) [compound 263]
Percent DMPK Reduction [1]: 24.93%
Normalized DMPK Remaining (0.5 nM oligonucleotide, qPCR): 0.75
Percent DMPK Reduction [2]: 60.77%
Normalized DMPK Remaining (50 nM oligonucleotide, qPCR): 0.39

471 (UCGGCCAGGCGGAUGUGGCC; chemistry not given here) [compound 471]
Percent DMPK Reduction (0.5 nM oligonucleotide): 26.53%
Normalized DMPK Remaining (0.5 nM oligonucleotide): 0.73
Percent DMPK Reduction (50 nM oligonucleotide): 83.04%
Normalized DMPK Remaining (50 nM oligonucleotide): 0.17

389 (CCGAGAGCAGCGCAAGUGAG; chemistry not given here) [compound 389]
Percent DMPK Reduction (0.5 nM oligonucleotide): 16.13%
Normalized DMPK Remaining (0.5 nM oligonucleotide): 0.84
Percent DMPK Reduction (50 nM oligonucleotide): 40.93%
Normalized DMPK Remaining (50 nM oligonucleotide): 0.59

407 (CCAAACUUGCTCAGCAGUGU; chemistry not given here) [compound 407]
Percent DMPK Reduction (0.5 nM oligonucleotide): 23.64%
Normalized DMPK Remaining (0.5 nM oligonucleotide): 0.76
Percent DMPK Reduction (50 nM oligonucleotide): 57.70%
Normalized DMPK Remaining (50 nM oligonucleotide): 0.42

309 (CACAGCGGUCCAGCAGGAUG; chemistry not given here) [compound 309]
Percent DMPK Reduction [1]: 6.62%
Normalized DMPK Remaining (0.5 nM oligonucleotide, qPCR): 0.93
Percent DMPK Reduction [2]: 59.58%
Normalized DMPK Remaining (50 nM oligonucleotide, qPCR): 0.40

399 (GGCACGAGACAGAACAACGG; chemistry not given here) [compound 399]
Percent DMPK Reduction (0.5 nM oligonucleotide): 16.10%
Normalized DMPK Remaining (0.5 nM oligonucleotide): 0.84
Percent DMPK Reduction (50 nM oligonucleotide): 68.01%
Normalized DMPK Remaining (50 nM oligonucleotide): 0.32

324 (GCCUCAGCCUCUGCCGCAGG; chemistry not given here) [compound 324]
Percent DMPK Reduction [1]: 16.37%
Normalized DMPK Remaining (0.5 nM oligonucleotide, qPCR): 0.84
Percent DMPK Reduction [2]: 46.42%
Normalized DMPK Remaining (50 nM oligonucleotide, qPCR): 0.54

379 (CAGGUAGUUCUCAUCCUGGA; chemistry not given here) [compound 379]
Percent DMPK Reduction (0.5 nM oligonucleotide): 25.92%
Normalized DMPK Remaining (0.5 nM oligonucleotide): 0.74
Percent DMPK Reduction (50 nM oligonucleotide): 76.71%
Normalized DMPK Remaining (50 nM oligonucleotide): 0.23

412 (AGGUACAGGUAGUUCUCAUC; chemistry not given here) [compound 412]
Percent DMPK Reduction (0.5 nM oligonucleotide): 18.68%
Normalized DMPK Remaining (0.5 nM oligonucleotide): 0.81
Percent DMPK Reduction (50 nM oligonucleotide): 58.92%
Normalized DMPK Remaining (50 nM oligonucleotide): 0.41

304 (UUCCCGAGUAAGCAGGCAGA; chemistry not given here) [compound 304]
Percent DMPK Reduction [1]: 31.49%
Normalized DMPK Remaining (0.5 nM oligonucleotide, qPCR): 0.69
Percent DMPK Reduction [2]: 49.81%
Normalized DMPK Remaining (50 nM oligonucleotide, qPCR): 0.50

267 (CUUGUUCAUGAUCUUCAUGG; chemistry not given here) [compound 267]
Percent DMPK Reduction [1]: 16.06%
Normalized DMPK Remaining (0.5 nM oligonucleotide, qPCR): 0.84
Percent DMPK Reduction [2]: 49.47%
Normalized DMPK Remaining (50 nM oligonucleotide, qPCR): 0.51

271 (CCCACGUAAUACUCCAUGAC; chemistry not given here) [compound 271]
Percent DMPK Reduction [1]: 28.21%
Normalized DMPK Remaining (0.5 nM oligonucleotide, qPCR): 0.72
Percent DMPK Reduction [2]: 45.94%
Normalized DMPK Remaining (50 nM oligonucleotide, qPCR): 0.54
